Data published in patent US12501899B2, “Mite infestation treatment” (priority 2019, dated 2025).
Structures can show the parent of a compound that is named as a salt. Where two headings read alike, the source gives them in different places.

Legend:
[1] = test system: bees (Apis mellifera)
Experimental: The bees were then dispatched in the boxes (10 per box).
The bees were then put to sleep for a few minutes using CO2 (flow of 3 liters for 20 seconds) in order to deposit 1 μL of compound to be tested on their thorax using a pipette. It should be noted that the bees which received romifidine hydrochloride at a concentration of 10 μg/μL received 2 μL of product. The bees were unconscious for the time the compound to be tested was deposited, that is to say around three minutes, then they woke up.
After thoracic deposition of the compound to be tested, the 10 bees from the same box were transferred to a box containing the 10 Varroa mites (cf. “Preparation of Varroa mites” above). Liquid sugar was left in each of the boxes to feed the bees during the observations. The series of boxes was then placed in an oven at […] with a humidity of 50% in order to approximate hive conditions as closely as possible.
The mortality of Varroa mites and bees was then monitored 5 minutes, 2 hours, 4 hours and 24 hours after application of the compound to be tested to the bees. Dead Varroa mites correspond to Varroa mites detached from the bees. Dead bees correspond to bees which no longer move and which are often placed on their thorax.
The following compositions were applied to the thorax of the bees: • Solvent, • Amitraz at 1 μg/μL in acetone, • Clonidine hydrochloride at 100 μg/μL, 10 μg/μL, 1 μg/μL and 0.1 μg/μL in methanol, • Detomidine hydrochloride monohydrate at 1 μg/μL in methanol, • Dexmedetomidine hydrochloride at 100 μg/μL, 10 μg/μL, 1 μg/μL and 0.1 μg/μL in methanol, • Romifidine hydrochloride at 10 μg/μL and at 5 μg/μL in methanol, • Tizanidine hydrochloride at 1 μg/μL in methanol, • Medetomidine hydrochloride at 0.1 μg/μL in ethanol, • Levomedetomidine hydrochloride at 100 μg/μL, 10 μg/μL, 1 μg/μL and 0.1 μg/μL in methanol, • Octopamine at 1 μg/μL in ethanol. Results

[2] = test system: bees; conditions: 100 μg/mL syrup ad libitum
Experimental: Bees and Varroa mites were obtained and contacted as detailed in Example 1 (without the treatment step).
The bees on which the Varroa mites are attached (10 bees placed in contact with 10 Varroa mites) were fed with: • A pure syrup (Negative control), or • A syrup comprising dexmedetomidine hydrochloride at 100 μg/mL syrup.
The syrup was provided to the bees ad libitum in 1.5 mL eppendorf tubes.

SMILES | bees killed / bee mortality ([1]; 1 μg/μL, 1 μL on bee thorax, time not stated (monitored up to 24 hours)) | mortality for bees ([1]; 0.1 μg/μL, after 24 hours) | mortality / toxicity for the bees ([1]; 1 μg/μL, after 24 hours) | mortality for bees ([1]; 10 μg/μL, after 24 hours) | toxicity for bees ([1]; 100 μg/μL) | % bee mortality ([2]; 5 min) | % bee mortality ([2]; 1 h) | % bee mortality ([2]; 2 h) | % bee mortality ([2]; 3 h 30) | % bee mortality ([2]; 3 h 45) | % bee mortality ([2]; 24 h)
Cc1ccc(/N=C/N(C)/C=N/c2ccc(C)cc2C)c(C)c1 [Amitraz] | 0% | – | – | – | – | – | – | – | – | – | –
Cc1cccc([C@H](C)c2c[nH]cn2)c1C [Dexmedetomidine hydrochloride, (S)-4-[1-(2,3-dimethylphenyl)-ethyl]-1H-imidazole] | – | less than 5% | less than 5% | less than 5% | toxic for bees | 0% | 0% | 5% | 5% | 5% | 5%
